Assay [1] is filed under the species Rattus norvegicus. Briefly: Potency by rat antidiuretic assay. The format is functional, Urine.
The species entered for assay [2] is Rattus norvegicus. Nature of the assay: Potency by rat pressor assay. The class given is functional.
The species entered for assay [3] is Gallus gallus. Briefly: Potency by avian vasodepressor assay.

`CC[C@H](C)[C@@H]1NC(=O)[C@H](Cc2ccc(O)cc2)NC(=O)[C@@H](N)CSSC[C@@H](C(=O)N2CCC[C@H]2C(=O)N[C@@H](CC(C)C)C(=O)NCC(=O)N(C)C)NC(=O)[C@H](CC(N)=O)NC(=O)[C@H](CCC(N)=O)NC1=O`: the Potency is listed as 0.096 mg in assay [1], less than 0.01 mg in assay [2] and less than 0.07 mg in assay [3].
